The text below walks through data of publication PMC13566268, “Everolimus-Involving Immunosuppression Attenuates Renal Interstitial Fibrosis Through Modulation of Mammalian Target of Rapamycin-Related Signal Transduction” (International Journal of Molecular Sciences, 2026).

A short description of the series: Pharmacokinetic assessment of immunosuppressants (blood/plasma trough and AUC). Format: in vivo, human. To be noted: Non-EVR group, plasma, mean ± SD. The method, then: Sampling was performed at both 1-month and 1-year posttransplantation. The area under the blood (plasma) concentration–time curve (AUC) was then calculated from these serial measurements.

For the compound `COc1c(C)c2c(c(O)c1C/C=C(\C)CCC(=O)O)C(=O)OC2` [MPA, mycophenolic acid], the “MPA AUC0–12” value is, setting by setting: (at 1-month posttransplantation) 53500 ± 21000 ng·h/mL; (at 1-year posttransplantation) 51500 ± 20000 ng·h/mL.
